Results reported in patent publication EP0655506B1 (priority 1994, dated 1995).
Read-outs that look alike come from different tables or passages of the source.

Key:
[1] = target: T1, T7 DNA polymerase mutant T7 C-T5, R D N A K A I I Y G F L Y G (Escherichia phage T7, UniProt P00581, DEL118-145/F524I/T523A); test: SDS activity gel analysis, incorporation of ddNMP relative to dNMP (Example 2); assay type: biochemical, bacteriophage T7; conditions: renatured enzyme in gel; 1.5 µM 4dNTPs with or without 30 µM ddTTP; 37 °C 4 hr
T1 construct: made in house; host or cells: induced cells of a strain producing E. coli thioredoxin; crude lysate, renatured in gel
T1 sequence (P0AA25 2-109, stated change not applied): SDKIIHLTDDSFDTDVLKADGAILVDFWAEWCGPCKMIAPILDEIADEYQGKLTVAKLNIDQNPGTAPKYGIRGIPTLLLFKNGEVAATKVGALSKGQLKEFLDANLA
T1 sequence (P00581 other isoform, or with tags, fused parts or gaps DEL118-145/T523A/F524I): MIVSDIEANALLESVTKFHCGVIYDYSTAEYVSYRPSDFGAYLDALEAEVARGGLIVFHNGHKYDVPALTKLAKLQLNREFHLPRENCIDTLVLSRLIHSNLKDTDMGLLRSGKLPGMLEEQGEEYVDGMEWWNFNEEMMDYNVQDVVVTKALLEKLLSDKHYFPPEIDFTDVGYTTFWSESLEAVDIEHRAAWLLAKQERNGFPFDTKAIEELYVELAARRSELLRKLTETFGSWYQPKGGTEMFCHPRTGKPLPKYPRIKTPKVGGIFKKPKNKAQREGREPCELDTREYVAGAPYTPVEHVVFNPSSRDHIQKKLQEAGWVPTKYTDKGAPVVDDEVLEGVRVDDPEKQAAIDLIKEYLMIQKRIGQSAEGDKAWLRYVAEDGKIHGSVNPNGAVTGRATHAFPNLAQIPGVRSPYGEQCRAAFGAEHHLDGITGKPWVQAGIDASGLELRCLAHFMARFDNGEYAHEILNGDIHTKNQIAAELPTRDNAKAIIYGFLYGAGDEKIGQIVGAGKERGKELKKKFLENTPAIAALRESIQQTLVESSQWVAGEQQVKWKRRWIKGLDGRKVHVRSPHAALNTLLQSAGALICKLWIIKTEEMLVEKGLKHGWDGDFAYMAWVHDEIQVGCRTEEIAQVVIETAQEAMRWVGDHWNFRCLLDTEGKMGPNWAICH
Description: (§1) Mutant DNA polymerases are screened for their ability to incorporate dideoxynucleotides by SDS activity gel analysis. The procedure is a modification of that described by Spanos and Hübscher 91 Methods in Enzymology 263, 1983 and Karawya et al. 135 Analytical Biochemistry 318, 1983. Briefly, 10 ml of cells are induced for 4 to 6 hours and then pelleted. The cell pellet is resuspended in 0.3 ml 25 mM Tris HCl, pH 7.0, 5 mM EDTA. 20 µl of the resuspended cells are mixed with 40 µl of a solution of 1% SDS (sodium dodecyl sulfate), 2% mercaptoethanol, 30 % glycerol, 0.04% bromphenol blue, and 100 mM TrisHCl, pH 6.8. The mixtures are incubated at 37 °C for 5 min, and then 20 µl aliquots are loaded in duplicate onto two SDS polyacrylamide gels. The SDS polyacrylamide gels consist of a resolving gel that contains 8% polyacrylamide, 0.27% bisacrylamide, 190 mM TrisHCl, pH 8.8, 0.05% SDS, and 25 µg/ml denatured salmon sperm DNA, and a stacking gel that consists of 5% polyacrylamide, 0.17% bisacrylamide, 150 mM TrisHCl, pH 6.8, and 0.1% SDS. The two gels are electrophoresed at 100 V for 13 hr at a constant temperature of 13 °C in an electrophoresis buffer consisting of 190 mM TrisHCl and pH 8.8, 0.05% SDS.
(§2) After electrophoresis, the gels are washed over 8 hr in 4 changes of 500 ml each of Renaturation Buffer (50 mM Tris.HCl, pH 7.5, 5 mM magnesium acetate, 1 mM dithiothreitol, 40 mM KCI, 400 µg/ml bovine serum albumin, 16% glycerol and 0.95 mM EDTA) at 4 °C.
(§3) The renatured proteins are assayed for DNA polymerase activity by incubating each of the two gels in 6 ml of Renaturation Buffer, 1.5 µM 4dNTPs, 4 µl of [a-^32P]dATP (800 Ci/mmol, 10 mCi/ml), and 80 µg of purified thioredoxin. One of the mixtures also contains 30 µM ddTTP (a 20-fold molar excess over dTTP). The mixtures are incubated for 4 hr at 37 °C (70 °C for 2 hr for thermophilic DNA polymerases).
(§4) After incubation the gels are washed for 8 hr against four changes of 5% trichloracetic acid and 1% sodium pyrophosphate. The gels are then dried and autoradiographed.
(§5) To determine whether a mutant DNA polymerase is discriminating more or less against ddTTP, the intensities of the radioactive bands are compared on the two gels that were incubated in the presence and absence of ddTTP, and the ratio of the signal in the two bands for the unmodified DNA polymerase is compared with the ratio of the signal in the two bands for each of the mutants.

[2] = target: T2, T7 DNA polymerase mutant T7 C-T8 (Y526F), R D N A K T F I F G F L Y G (Escherichia phage T7, UniProt P00581, DEL118-145/Y526F); test: as above; assay type: biochemical, bacteriophage T7
T2 construct: made in house; host or cells: induced cells of a strain producing E. coli thioredoxin; crude lysate, renatured in gel
T2 sequence (P00581 other isoform, or with tags, fused parts or gaps DEL118-145/Y526F): as the sequence (P00581 other isoform, or with tags, fused parts or gaps DEL118-145/T523A/F524I) above, with A495T, I496F, Y498F counted along it
T2 sequence (P0AA25 2-109, stated change not applied, further chain): as the sequence (P0AA25 2-109, stated change not applied) above
Description: as §1, §2, §3, §4, §5

T7 DNA polymerase Y526F = target: T3, T7 DNA polymerase Y526F (Escherichia phage T7, UniProt P00581, DEL118-145/Y526F); test: Gel electrophoresis-based rate of incorporation of dideoxynucleotides relative to deoxynucleotides, varying the ratio of dNTPs to ddNTPs (Example 7); assay type: biochemical, bacteriophage T7; conditions: 10 µM 4 dNTPs, ddNTP 100 to 2,000 µM; ddNTP:dNTP ratio giving fragments comparable to T7 DNA polymerase, multiplied by its Example 6 ratio
T3 construct: made in house; host or cells: strain that produces E. coli thioredoxin (lac promoter)
T3 sequence (P00581 other isoform, or with tags, fused parts or gaps DEL118-145/Y526F): as the sequence (P00581 other isoform, or with tags, fused parts or gaps DEL118-145/T523A/F524I) above, with A495T, I496F, Y498F counted along it
T3 sequence (P0AA25 2-109, stated change not applied, further chain): as the sequence (P0AA25 2-109, stated change not applied) above
Description: This example is similar to that described in Example 6. While it is the preferred test for DNA polymerases that discriminate strongly against the incorporation of dideoxynucleotides (e.g. T7 DNA polymerase Y526F, E. coli DNA polymerase I and Taq DNA polymerase), it also works well with DNA polymerases that efficiently incorporate ddNMPs (e.g. T7 DNA polymerase, E. coli DNA polymerase I mutant F762Y and Taq DNA polymerase mutant F667Y).
The average length of a series of fragments is determined in one of two ways. […] The position of the front marking the appearance of visible radioactive bands is usually relatively sharp and readily observed by eye. However, it is also possible to determine such positions more precisely using the Phosphoimager to locate the position in each lane where a certain threshold of radioactivity per unit area occurs, starting at the top of the gel and moving down the gel.
Some DNA polymerases discriminate very strongly against the incorporation of dideoxynucleotides, in which case it is difficult to add sufficient ddNTPs to the reaction to clearly detect the position of the largest dideoxy-terminated fragments on a denaturing polyacrylamide gel. For such DNA polymerases, one can use an alkaline agarose gel electrophoresis to compare the lengths of the dideoxy-terminated fragments in the different series.
These tests were carried out using the six DNA polymerases described in Example 6. The reaction conditions were identical to that described in Example 6 except for the concentrations of dNTPs and ddNTPs. All reaction mixtures contained 10 µM 4 dNTPs. Each of the four ddNTP concentrations were varied by two-fold increments in the following ranges for the six DNA polymerases as follows: T7 DNA polymerase, E. coli DNA polymerase I F762Y, and Taq DNA polymerase F667Y , 0.02 µM to 1 µM, and T7 DNA polymerase Y526F, E. coli DNA polymerase I and Taq DNA polymerase, 100 to 2,000 µM. The reactions were carried out and the samples were analyzed by denaturing polyacrylamide gel electrophoresis as described in Example 6. Drying of the gel, autoradiography, and Phosphoimager analysis were as described in Example 6. The Table below summarizes the results from this experiment; the values shown for T7 DNA polymerase, E. coli DNA polymerase I F762Y, and Taq DNA polymerase F667Y are the absolute ratios obtained in Example 6 by statistical analysis of the rate of exponential decay in intensity of dideoxy-terminated fragments obtained using a 1:1 ratio of dNTPs to ddNTPs. […] This factor was multiplied by the absolute ratios obtained for T7 DNA polymerase, E. coli DNA polymerase I F762Y, and Taq DNA polymerase F667Y in Example 6 in order to obtain the values shown below for T7 DNA polymerase Y526F, E. coli DNA polymerase I and Taq DNA polymerase, respectively.

[3] = target: T4, E. coli DNA polymerase I (Klenow fragment) (Escherichia coli, UniProt P00582); conditions: cited from earlier work
T4 construct: manganese reduces the discrimination of Klenow fragment against ddATP from 550 to 3.9 fold
T4 sequence (P00582 324-928): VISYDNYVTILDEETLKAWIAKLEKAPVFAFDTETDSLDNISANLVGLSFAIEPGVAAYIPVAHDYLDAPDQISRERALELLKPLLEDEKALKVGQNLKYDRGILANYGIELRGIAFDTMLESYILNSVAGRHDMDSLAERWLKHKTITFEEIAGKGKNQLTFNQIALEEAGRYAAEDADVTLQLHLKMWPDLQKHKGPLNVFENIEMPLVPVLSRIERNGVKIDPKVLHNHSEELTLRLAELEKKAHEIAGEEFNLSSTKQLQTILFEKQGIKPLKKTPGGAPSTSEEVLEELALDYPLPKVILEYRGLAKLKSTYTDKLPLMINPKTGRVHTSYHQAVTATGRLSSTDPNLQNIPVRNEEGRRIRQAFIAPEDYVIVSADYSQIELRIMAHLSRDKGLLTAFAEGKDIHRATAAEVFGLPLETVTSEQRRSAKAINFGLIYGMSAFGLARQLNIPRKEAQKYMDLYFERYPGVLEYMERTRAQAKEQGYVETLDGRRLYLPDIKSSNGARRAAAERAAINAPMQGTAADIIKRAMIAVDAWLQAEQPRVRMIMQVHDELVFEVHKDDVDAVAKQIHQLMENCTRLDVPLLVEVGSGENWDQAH

SMILES	ddNTP Discrimination [1]	intensity of the bands in the presence versus the absence of ddTTP ([2]; 30 µM ddTTP (20-fold molar excess over dTTP), 1.5 µM 4dNTPs, within a factor of two)	ddNTP Discrimination ([2]; renatured enzyme in gel, 1.5 µM 4dNTPs with or without 30 µM ddTTP, 37 °C 4 hr)	Incorporation Rate Ratios (dN/ddN) (T7 DNA polymerase Y526F)	discrimination against ddATP ([3]; in the presence of manganese)	discrimination against ddATP ([3]; magnesium)
Cc1cn([C@H]2CC[C@@H](COP(=O)(O)OP(=O)(O)OP(=O)(O)O)O2)c(=O)[nH]c1=O [ddTTP]	Low	approximately the same intensity	High	8,400	–	–
Nc1ncnc2c1ncn2[C@H]1CC[C@@H](COP(=O)(O)OP(=O)(O)OP(=O)(O)O)O1 [ddATP]	–	–	–	7,300	3.9 fold	550 fold
Nc1nc2c(ncn2[C@H]2CC[C@@H](COP(=O)(O)OP(=O)(O)OP(=O)(O)O)O2)c(=O)[nH]1 [ddGTP]	–	–	–	6,400	–	–
Nc1ccn([C@H]2CC[C@@H](COP(=O)(O)OP(=O)(O)OP(=O)(O)O)O2)c(=O)n1 [ddCTP]	–	–	–	11,000	–	–
